The supplement of paper PMC4862054

Key:
Conditions in all cases: incubation time: 72 h
CAL-51 [1] = test: normalised response (% of control), CellTox Green; higher = less cell death (100 = DMSO, 0 = benzethonium chloride kill control)
In short: (§1)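 Two readouts were taken after 72 h: CellTox Green fluorescence (485/520 nm) first, then CellTiter-Glo luminescence after 10 min at room temperature. Breast cancer cell lines had been seeded as 20 µl suspension into 384-well plates holding compound at 5 concentrations in 10-fold steps across a compound-specific 10,000-fold range. Each value is a normalised signal at a single concentration, with plates scaled to 0.1 % DMSO (100) and a positive kill control (0).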

MDA-MB-436 [2] = test: as above
In short: as §1

HCC1599 [3] = test: as above
In short: as §1

MFM-223 [4] = test: as above
In short: as §1

BT-474 [5] = test: as above
In short: as §1

HCC1143 [6] = test: as above
In short: as §1

DU-4475 [7] = test: as above
In short: as §1

HCC1937 [8] = test: as above
In short: as §1

BT-549 [9] = test: as above
In short: as §1

MDA-MB-468 [10] = test: as above
In short: as §1

MDA-MB-453 [11] = test: as above
In short: as §1

MDA-MB-231 [12] = test: as above
In short: as §1

Hs578T [13] = test: as above
In short: as §1

HDQ-P1 [14] = test: as above
In short: as §1

CAL-120 [15] = test: as above
In short: as §1

CAL-148 [16] = test: as above
In short: as §1

CAL-85-1 [17] = test: as above
In short: as §1

MCF-10A [18] = test: as above
In short: as §1

CAL-51 [19] = test: normalised response (% of control), CellTiter-Glo; higher = more viable cells (100 = DMSO, 0 = benzethonium chloride kill control)
Experimental: (§2)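 DSRT, 72 h incubation, CellTox Green / CellTiter-Glo readout. Signal is normalised to DMSO and benzethonium chloride controls. Value is the normalised response at dose 3.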

MDA-MB-436 [20] = test: as above
Experimental: as §2

HCC1599 [21] = test: as above
Experimental: as §2

MFM-223 [22] = test: as above
Experimental: as §2

BT-474 [23] = test: as above
Experimental: as §2

HCC1143 [24] = test: as above
Experimental: as §2

SK-BR-3 [25] = test: as above
Experimental: as §2

DU-4475 [26] = test: as above
Experimental: as §2

HCC1937 [27] = test: as above
Experimental: as §2

BT-549 [28] = test: as above
Experimental: as §2

MDA-MB-468 [29] = test: as above
Experimental: as §2

MDA-MB-453 [30] = test: as above
Experimental: as §2

MDA-MB-231 [31] = test: as above
Experimental: as §2

HDQ-P1 [32] = test: as above
Experimental: as §2

CAL-120 [33] = test: as above
Experimental: as §2

CAL-148 [34] = test: as above
Experimental: as §2

CAL-85-1 [35] = test: as above
Experimental: as §2

MCF-10A [36] = test: as above
Experimental: as §2

CAL-51 [37] = test: as above; remark: listed apart in the source
Experimental: (§3)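 DSRT, 72 h incubation, CellTox Green / CellTiter-Glo readout. Signal is normalised to DMSO and benzethonium chloride controls. Value is the normalised response at the highest dose.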

MDA-MB-436 [38] = test: as above; remark: listed apart in the source
Experimental: as §3

HCC1599 [39] = test: as above; remark: listed apart in the source
Experimental: as §3

MFM-223 [40] = test: as above; remark: listed apart in the source
Experimental: as §3

BT-474 [41] = test: as above; remark: listed apart in the source
Experimental: as §3

HCC1143 [42] = test: as above; remark: listed apart in the source
Experimental: as §3

SK-BR-3 [43] = test: as above; remark: listed apart in the source
Experimental: as §3

DU-4475 [44] = test: as above; remark: listed apart in the source
Experimental: as §3

HCC1937 [45] = test: as above; remark: listed apart in the source
Experimental: as §3

BT-549 [46] = test: as above; remark: listed apart in the source
Experimental: as §3

MDA-MB-468 [47] = test: as above; remark: listed apart in the source
Experimental: as §3

MDA-MB-453 [48] = test: as above; remark: listed apart in the source
Experimental: as §3

MDA-MB-231 [49] = test: as above; remark: listed apart in the source
Experimental: as §3

Hs578T [50] = test: as above
Experimental: as §3

HDQ-P1 [51] = test: as above; remark: listed apart in the source
Experimental: as §3

CAL-120 [52] = test: as above; remark: listed apart in the source
Experimental: as §3

CAL-148 [53] = test: as above; remark: listed apart in the source
Experimental: as §3

CAL-85-1 [54] = test: as above; remark: listed apart in the source
Experimental: as §3

MCF-10A [55] = test: as above; remark: listed apart in the source
Experimental: as §3

SMILES	normalised response (CAL-51 [1]) [%]	normalised response (HCC1599 [3]) [%]	normalised response (MFM-223 [4]) [%]	normalised response (BT-474 [5]) [%]	normalised response (HCC1143 [6]) [%]	normalised response (DU-4475 [7]) [%]	normalised response (BT-549 [9]) [%]	normalised response (MDA-MB-468 [10]) [%]	normalised response (MDA-MB-453 [11]) [%]	normalised response (MDA-MB-231 [12]) [%]	normalised response (Hs578T [13]) [%]	normalised response (HDQ-P1 [14]) [%]	normalised response (CAL-120 [15]) [%]	normalised response (CAL-148 [16]) [%]	normalised response (CAL-85-1 [17]) [%]	normalised response (MCF-10A [18]) [%]	normalised response (CAL-51 [37]) [%]	normalised response (MDA-MB-436 [38]) [%]	normalised response (HCC1599 [39]) [%]	normalised response (MFM-223 [40]) [%]	further results
Cn1c(=O)n(-c2ccc(C(C)(C)C#N)cc2)c2c3cc(-c4cnc5ccccc5c4)ccc3ncc21 [Dactolisib] (10 nM)	113	115	104	101	55.5	104	110	130	108	120	116	116	98.7	103	101	108					normalised response (MDA-MB-436 [2]): 102%; normalised response (HCC1937 [8]): 122%; normalised response (CAL-51 [19]): 68.4%; normalised response (MDA-MB-436 [20]): 65.9%; normalised response (HCC1599 [21]): 97.5%; normalised response (MFM-223 [22]): 83.8%; normalised response (BT-474 [23]): 80.5%; normalised response (HCC1143 [24]): 78%; normalised response (SK-BR-3 [25]): 73.6%; normalised response (DU-4475 [26]): 96.3%; normalised response (HCC1937 [27]): 85.5%; normalised response (BT-549 [28]): 61.5%; normalised response (MDA-MB-468 [29]): 84.3%; normalised response (MDA-MB-453 [30]): 75.9%; normalised response (MDA-MB-231 [31]): 80.3%; normalised response (HDQ-P1 [32]): 80.1%; normalised response (CAL-120 [33]): 62.1%; normalised response (CAL-148 [34]): 88.5%; normalised response (CAL-85-1 [35]): 62.9%; normalised response (MCF-10A [36]): 99.8%
Cc1ccc(NC(=O)c2ccc(CN3CCN(C)CC3)cc2)cc1Nc1nccc(-c2cccnc2)n1 [Imatinib] (10000 nM)	93.1	94.8	99.9	96.6	91.2	97.9	92.7	113	-13.7	114	76.1	74.4	101	103	84.2	65.1	76.5	94.3	71.6	87.7	normalised response (BT-474 [41]): 87.4%; normalised response (HCC1143 [42]): 91.3%; normalised response (SK-BR-3 [43]): 84.7%; normalised response (DU-4475 [44]): 107%; normalised response (HCC1937 [45]): 83.6%; normalised response (BT-549 [46]): 89.5%; normalised response (MDA-MB-468 [47]): 86.8%; normalised response (MDA-MB-453 [48]): 73.4%; normalised response (MDA-MB-231 [49]): 94.8%; normalised response (Hs578T [50]): 98.3%; normalised response (HDQ-P1 [51]): 111%; normalised response (CAL-120 [52]): 108%; normalised response (CAL-148 [53]): 116%; normalised response (CAL-85-1 [54]): 85.7%; normalised response (MCF-10A [55]): 128%; normalised response (MDA-MB-436 [2]): 87.4%
c1ccc([C@H]2CN3CCSC3=N2)cc1 [Levamisole] (10000 nM)	113	92.5	95.2	101	106	104	95.8	110	71.4		72	72.4	98.4	53.5	79.1	67.3	119	108	114	108	normalised response (BT-474 [41]): 102%; normalised response (HCC1143 [42]): 99.3%; normalised response (SK-BR-3 [43]): 110%; normalised response (DU-4475 [44]): 98.9%; normalised response (HCC1937 [45]): 100%; normalised response (BT-549 [46]): 96.5%; normalised response (MDA-MB-468 [47]): 104%; normalised response (MDA-MB-453 [48]): 106%; normalised response (MDA-MB-231 [49]): 104%; normalised response (Hs578T [50]): 100%; normalised response (HDQ-P1 [51]): 104%; normalised response (CAL-120 [52]): 112%; normalised response (CAL-148 [53]): 106%; normalised response (CAL-85-1 [54]): 94%; normalised response (MCF-10A [55]): 110%; normalised response (HCC1937 [8]): 82.5%
CNNCc1ccc(C(=O)NC(C)C)cc1 [Procarbazine] (10000 nM)	110	98.3	94.5	103	115	96.2	94		60.5	99	108	99.9	111	93	72	115	96.3	103	96.8	108	normalised response (BT-474 [41]): 98%; normalised response (HCC1143 [42]): 113%; normalised response (SK-BR-3 [43]): 109%; normalised response (DU-4475 [44]): 102%; normalised response (HCC1937 [45]): 103%; normalised response (BT-549 [46]): 101%; normalised response (MDA-MB-468 [47]): 99.4%; normalised response (MDA-MB-453 [48]): 102%; normalised response (MDA-MB-231 [49]): 103%; normalised response (Hs578T [50]): 105%; normalised response (HDQ-P1 [51]): 104%; normalised response (CAL-120 [52]): 106%; normalised response (CAL-148 [53]): 107%; normalised response (CAL-85-1 [54]): 99.3%; normalised response (MCF-10A [55]): 109%; normalised response (MDA-MB-436 [2]): 81.7%
CN1CCN(CCOc2cc(OC3CCOCC3)c3c(Nc4c(Cl)ccc5c4OCO5)ncnc3c2)CC1 [Saracatinib] (10000 nM)	58	76.6	90.4	42	96.4	95.5	86.2	125	79	51.3	59.7	68.9	94.5	68.4	29.9	87.1	59.8	83	19.4	64.9	normalised response (BT-474 [41]): 55%; normalised response (HCC1143 [42]): 67.1%; normalised response (SK-BR-3 [43]): 46.9%; normalised response (DU-4475 [44]): 106%; normalised response (HCC1937 [45]): 56%; normalised response (BT-549 [46]): 57.8%; normalised response (MDA-MB-468 [47]): 67.5%; normalised response (MDA-MB-453 [48]): 63.1%; normalised response (MDA-MB-231 [49]): 47.5%; normalised response (Hs578T [50]): 64.8%; normalised response (HDQ-P1 [51]): 34.6%; normalised response (CAL-120 [52]): 66.3%; normalised response (CAL-148 [53]): 75.2%; normalised response (CAL-85-1 [54]): 27.9%; normalised response (MCF-10A [55]): 21.4%; normalised response (HCC1937 [8]): 81.7%
